This is an account of results in publication PMC9298070, “Lack of a Clinically Meaningful Drug Interaction Between the HIV‐1 Antiretroviral Agents Islatravir, Dolutegravir, and Tenofovir Disoproxil Fumarate” (Clinical Pharmacology in Drug Development, 2021).

What is called Cmax is the maximum level reached in the sampled fluid or tissue. As usually defined, the Tmax is the time from dosing to the highest level.

Where two headings read alike, the source gives them in different places.

This data set can be described thus: Plasma pharmacokinetics in phase 1, open-label, fixed-sequence, 2-period drug interaction trial (MK-8591-005). Format: in vivo, human. The protocol:
This was a phase 1, open‐label, fixed‐sequence, 2‐period trial in adults without HIV (protocol MK‐8591‐005). In period 1, participants received a single oral dose of 20 mg islatravir. In period 2, participants received multiple oral doses of 50 mg dolutegravir and 300 mg TDF once daily for 11 consecutive days (days 1‐11), with a single oral dose of 20 mg islatravir coadministered on day 8. There was a washout period of ≥7 days between islatravir dosing in period 1 and the first dose of dolutegravir and TDF in period 2 (Figure 1).
Blood samples for islatravir plasma analysis were collected before dosing and at selected time points over 96 hours following administration of islatravir on day 1 of period 1 and day 8 of period 2. In period 2, samples taken at 24, 48, and 72 hours for islatravir plasma analysis were collected before dose administration of dolutegravir and TDF. Blood samples for plasma analysis of dolutegravir and tenofovir were collected before dosing on days 1, 7, and 8 of period 2 and at selected time points over 24 hours after dosing on days 7 and 8 of period 2. The 24 hour samples for dolutegravir and tenofovir analysis for days 7 and 8 were collected before dosing of dolutegravir and TDF.
Plasma concentrations of islatravir, dolutegravir, and tenofovir were determined by inVentiv Health Clinique (Québec City, Québec, Canada) using validated high‐performance liquid chromatography coupled to tandem mass spectrometry methods.
Islatravir (m/z 294.000/154.000) was extracted using an automated protein precipitation method using [^13C,^15N3]‐ISL as internal standard (m/z 297.800/158.000). The extracted samples were assessed on a system equipped with a X Select HSS T3 C18, 50×2.1 mm, 2.5 μm column with water/acetonitrile with formic acid mobile phase. […] The lower limit of quantitation for islatravir was 0.10 ng/mL, with an analytical range of 0.10 to 100.00 ng/mL.
Dolutegravir (m/z 420.200/277.200) was extracted using an automated protein precipitation method using [C^13‐d5]‐dolutegravir as the internal standard (m/z 426.300/277.300). The extracted samples were assessed on a system equipped with an ACE 3 C18, 30 × 4.6 mm, 3 μm column (Avantor, Radnor, Pennsylvania) with water/methanol with ammonium formate and formic acid mobile phase. […] The lower limit of quantitation for dolutegravir was 10.00 ng/mL, with an analytical range of 10.00 to 10 000.00 ng/mL.
Tenofovir (m/z 288.200/176.200) was extracted using an automated solid phase extraction using tenofovir‐d6 as internal standard (m/z 294.100/182.300). The extracted samples were assessed on a system equipped with an Atlantis dC18, 75 × 4.6 mm, 3 μm column (Waters Corp., Milford, Massachusetts) with water/acetonitrile with ammonium formate and formic acid mobile phase. […] The lower limit of quantitation for tenofovir was 0.50 ng/mL, with an analytical range of 0.50 to 500.00 ng/mL.
Plasma islatravir, dolutegravir, and tenofovir pharmacokinetics were summarized descriptively. Pharmacokinetic parameter values were calculated using the software Phoenix WinNonlin version 6.3 (Certara, Princeton, New Jersey). Cmax, C24, and tmax values were obtained directly from the observed plasma concentration–time data.

For the molecule `C#C[C@]1(CO)O[C@@H](n2cnc3c(N)nc(F)nc32)C[C@@H]1O` [Islatravir, 4′‐Ethynyl‐2‐fluoro‐2′‐deoxyadenosine], the “increase of islatravir AUC0‐inf on coadministration” value (coadministration with steady-state dolutegravir and TDF compared with islatravir administered alone) came to 28%. In addition, the half-life was 55.9 h (human, oral, plasma islatravir, single 20 mg islatravir on day 8 with 50 mg dolutegravir + 300 mg TDF once daily, period 2, N = 12, read-out: Apparent terminal t1/2, geometric mean (geometric CV %) (converted)); 56.2 h (human, plasma, oral, plasma islatravir, single 20 mg islatravir on day 8 with 50 mg dolutegravir + 300 mg TDF once daily, period 2, N = 12, read-out: Apparent terminal t1/2, AM (SD) (converted)); 57.2 h (human, plasma, po, 20 mg, plasma islatravir, islatravir alone, single oral 20 mg, day 1 period 1, N = 12, read-out: Apparent terminal t1/2, AM (SD) (converted)); 56.6 h (human, plasma, po, 20 mg, plasma islatravir, islatravir alone, single oral 20 mg, day 1 period 1, N = 12, read-out: Apparent terminal t1/2, geometric mean (geometric CV %) (converted)). Moreover, the AUC is, setting by setting: (human, plasma, oral, plasma islatravir, single 20 mg islatravir on day 8 with 50 mg dolutegravir + 300 mg TDF once daily days 1-11, period 2, N = 12, read-out: AUC0‐inf, AM (SD)) 2.53 µM·h; (human, plasma, oral, plasma islatravir, single 20 mg islatravir on day 8 with 50 mg dolutegravir + 300 mg TDF once daily days 1-11, period 2, N = 12, read-out: AUC0‐inf, GM (95%CI)) 2.51 µM·h; (human, plasma, po, 20 mg, plasma islatravir, islatravir alone, single oral 20 mg, day 1 period 1, N = 12, read-out: AUC0‐inf, AM (SD)) 2 µM·h; (human, plasma, po, 20 mg, plasma islatravir, islatravir alone, single oral 20 mg, day 1 period 1, N = 12, read-out: AUC0‐inf, GM (95%CI)) 1.97 µM·h. Also, the Cmax runs as follows: (human, plasma, oral, plasma islatravir, single 20 mg islatravir on day 8 with 50 mg dolutegravir + 300 mg TDF once daily days 1-11, period 2, N = 12, read-out: Cmax, AM (SD)) 522 nM; (human, plasma, oral, plasma islatravir, single 20 mg islatravir on day 8 with 50 mg dolutegravir + 300 mg TDF once daily days 1-11, period 2, N = 12, read-out: Cmax, GM (95%CI)) 510 nM; (human, plasma, po, 20 mg, plasma islatravir, islatravir alone, single oral 20 mg, day 1 period 1, N = 12, read-out: Cmax, AM (SD)) 495 nM; (human, plasma, po, 20 mg, plasma islatravir, islatravir alone, single oral 20 mg, day 1 period 1, N = 12, read-out: Cmax, GM (95%CI)) 479 nM. Moreover, the time of peak concentration (Tmax) (human, plasma, po, 20 mg, plasma islatravir, islatravir alone, single oral 20 mg, day 1 period 1, N = 12, read-out: tmax, median (min‐max)) worked out at 0.75 h. For the same molecule, the “tmax, median (min‐max)” value (plasma islatravir, single 20 mg islatravir on day 8 with 50 mg dolutegravir + 300 mg TDF once daily, period 2, N = 12) is on record as 1.00 (0.50‐2.01) h.
